# Measurements: US20090253709A1 (NATIONAL DEFENSE MEDICAL CENTER, priority 2008, published 2009)
# Read-outs that look alike come from different tables or passages of the source.
# How the values were obtained:
# telomerase = assay: Telomeric repeat amplification protocol (TRAP); assay type: biochemical; conditions: compounds at 100, 10 and 1 μM; gel electrophoresis
# hTERT expression = assay: SEAP assay, H1299/PhTERT-driven SEAP system; assay type: cell-based, human; conditions: Homo sapiens
# Description: The condition of the cells for selecting the telomerase inhibitor must be the cancer cells with telomerase activity. H1299 is a non-small cell lung cancer cell line with telomerase activity. The hTERT communication gene linked behind PhTERT which is located at the fifth chromosome of H1299 cell can be expressed; however, this expression is hard to detect. Therefore, the plasmid having the SEAP communication gene linked behind PhTERT was transfected into H1299 cells. Under the identical condition, after PhTERT was activated, the SEAP communication gene linked behind the plasmid was also activated. This gene could be detected by this analytic method while expressing.
# If additionally added reagent can inhibit PhTERT, the linked SEAP communication gene will not be expressed, and the hTERT communication gene linked behind PhTERT at the fifth chromosome will not be expressed. […]
# The cellular medium after the cellular incubation was transferred into the eppondorf tube, and the activity of endogeneous alkaline phosphatase was inactivated at 65° C. for 10 minutes. After centrification, the mixture was obtained by mixing 50 μl of the supernatant with the equal volume of the SEAP buffer. The mixture and the substrate (120 mM of p-nitrophenylphosphate) were preheated at 37° C. for 10 minutes respectively, and the mixture and the substrate were mixed at a ratio of 1:10 and reacted at 37° C. The absorbance of visible light at 405 nm was determined at the appropriate time intervals, and the enzymatic activity of SEAP was represented by the speed of the increasing absorbance at 405 nm.
# The selection of telomerase inhibitors of the anthraquinone compounds provided in the present invention was performed by the H1299/PhTERT-driven SEAP system. SEAP is the communication gene in this drug selection model. The SEAP inhibition was shown as follows. The quantitative cellular medium obtained after the 24-hour drug-treatment and the identical inactivation was reacted with the quantitative SEAP substrate, and the absorbance at 405 nm was detected for 5 time intervals. Subsequently, the linear slope of absorbance to the measuring time was calculated, and the variance of absorbance at 405 nm per minute was represented and compared with the SEAP-producing result of drug-untreated H1299 cells. In addition, the influence of the cell-treated drug solution to the cellular proliferation and the drug toxicity to the cells were considered, and the cellular growth was evaluated by the MTT assay. The drug-treated cells were analyzed by the SEAP assay and the data analysis of MTT assay at the same time. Both results were compared so as to delete the influence of cell number or the activity to SEAP, and the dose-dependent phenomenon could be anticipated in the range of drug concentration designed by the laboratory.
# In the preliminary selection, the highest concentration was 1000 μM, and 10-fold serial dilutions were done. Therefore, the final concentrations for treating cells were 1 μM, 10 μM and 100 μM, and the drug concentrations were repeated for 5 times. Since the chemically-synthetic drugs have colors thereon, the SEAP value of drug-treatment without cells was also determined to be the background value which was deducted while treating with the drugs. The candidate drug for inhibiting telomerase on the hTERT gene expression level was evaluated and anticipated.
# COLO 205 = assay: In vitro cytotoxicity, Development Therapeutics Program; assay type: cell-based; conditions: COLO 205, colon cancer; 1.0×10^−5 M
# Description: (§1) From the in vitro experiments of the Development Therapeutics Program of the Cancer Research Institute, the United States, it was known that the synthetic heterocyclic anthraquinone derivatives of the present invention have different inhibition levels to the different cancer cell lines under the concentration of 1.0×10^−5 M. Please refer to Table 2, which is the result of in vitro cytotoxicity of 2,7-disubstituted anthraquinone derivatives of the present invention.
# NCl-H226 = assay: as above; assay type: cell-based; conditions: NCl-H226, non-small cell lung cancer; 1.0×10^−5 M
# Description: as §1
# TK-10 = assay: as above; assay type: cell-based; conditions: TK-10, renal cancer; 1.0×10^−5 M
# Description: as §1
# LOX IMVI = assay: as above; assay type: cell-based; conditions: melanoma, 1.0×10^−5 M
# Description: as §1
# CCRF-CEM = assay: as above; assay type: cell-based; conditions: leukemia, 1.0×10^−5 M
# Description: as §1
# OVCAR-3 = assay: as above; assay type: cell-based; conditions: OVCAR-3, ovarian cancer; 1.0×10^−5 M
# Description: as §1
# OVCAR-4 = assay: as above; assay type: cell-based; conditions: OVCAR-4, ovarian cancer; 1.0×10^−5 M
# Description: as §1
# SF-268 = assay: as above; assay type: cell-based; conditions: SF-268, CNS cancer; 1.0×10^−5 M
# Description: as §1
# EKVX = assay: as above; assay type: cell-based; conditions: non-small cell lung cancer, 1.0×10^−5 M
# Description: as §1
# SF-295 = assay: as above; assay type: cell-based; conditions: SF-295, CNS cancer; 1.0×10^−5 M
# Description: as §1
# ACHN = assay: as above; assay type: cell-based; conditions: renal cancer, 1.0×10^−5 M
# Description: as §1
# OVCAR-5 = assay: as above; assay type: cell-based; conditions: OVCAR-5, ovarian cancer; 1.0×10^−5 M
# Description: as §1
# PC-3 = assay: as above; assay type: cell-based; conditions: PC-3, prostate cancer; 1.0×10^−5 M
# Description: as §1
# NCI/ADR-RES = assay: as above; assay type: cell-based; conditions: breast cancer, 1.0×10^−5 M
# Description: as §1
# MCF7 = assay: as above; assay type: cell-based; conditions: MCF7, breast cancer; 1.0×10^−5 M
# Description: as §1
# UO-31 = assay: as above; assay type: cell-based; conditions: UO-31, renal cancer; 1.0×10^−5 M
# Description: as §1
# SR = assay: as above; assay type: cell-based; conditions: leukemia, 1.0×10^−5 M
# Description: as §1
# 786-0 = assay: as above; assay type: cell-based; conditions: 786-0, renal cancer; 1.0×10^−5 M
# Description: as §1
# SW-620 = assay: as above; assay type: cell-based; conditions: SW-620, colon cancer; 1.0×10^−5 M
# Description: as §1
# NCl-H322M = assay: as above; assay type: cell-based; conditions: non-small cell lung cancer, 1.0×10^−5 M
# Description: as §1
# [1] = NCI-H1299, read-out: SEAP (Inhibition μM ± SD)
Structure (SMILES),telomerase inhibition effect in TRAP assay (telomerase),Cellular growth rate (%) (COLO 205),Cellular growth rate (%) (NCl-H226),Cellular growth rate (%) (TK-10),Cellular growth rate (%) (LOX IMVI),Cellular growth rate (%) (CCRF-CEM),Cellular growth rate (%) (OVCAR-3),Cellular growth rate (%) (OVCAR-4),Cellular growth rate (%) (SF-268),Cellular growth rate (%) (EKVX),Cellular growth rate (%) (SF-295),Cellular growth rate (%) (ACHN),Cellular growth rate (%) (OVCAR-5),Cellular growth rate (%) (PC-3),Cellular growth rate (%) (NCI/ADR-RES),Cellular growth rate (%) (MCF7),Cellular growth rate (%) (UO-31),Cellular growth rate (%) (SR),Cellular growth rate (%) (786-0),Cellular growth rate (%) (SW-620),further results
"CCN(CC)CCC(=O)Nc1ccc2c(c1)C(=O)c1cc(NC(=O)CCN(CC)CC)ccc1C2=O [Compound 16, 2,7-Bis[3-(diethylamino)propionamido]anthraquinone]",telomerase inhibition effect,−49.69,49.89,17.16,3.39,−6.02,10.39,24.92,35.18,59.99,−19.91,11.09,33.63,13.59,59.52,9.34,−31.53,−0.39,24.72,16.93,"activity at 1 µM (hTERT expression; NCI-H1299, H1299, compound concentration 1 μM, read-out: SEAP (Inhibition μM ± SD)): 76 ± 19%; activity at 10 µM (hTERT expression; NCI-H1299, H1299, compound concentration 10 μM, read-out: SEAP (Inhibition μM ± SD)): 35 ± 17%; activity at 100 µM (hTERT expression; NCI-H1299, H1299, compound concentration 100 μM, read-out: SEAP (Inhibition μM ± SD)): 26 ± 11%; Cellular growth rate (%) (NCl-H322M): 44.75%"
"CC(=O)Nc1ccc2c(c1)C(=O)c1cc(NC(C)=O)ccc1C2=O [Compound 26, 2,7-Bis(acetamido)anthraquinone]",telomerase inhibition effect,119.85,104.51,118.38,99.05,99.77,111.06,103.60,113.68,95.28,103.25,96.93,102.27,102.73,114.26,96.90,96.42,3.61,97.72,103.21,activity at 1 µM (hTERT expression; [1]): 97 ± 10%; activity at 10 µM (hTERT expression; [1]): 87 ± 14%; activity at 100 µM (hTERT expression; [1]): 74 ± 18%; Cellular growth rate (%) (NCl-H322M): 97.50%
